Source: paper PMC7238130, “Improved Dissolution and Pharmacokinetics of Abiraterone through KinetiSol® Enabled Amorphous Solid Dispersions” (Pharmaceutics, 2020)
Converted amounts (≈) assume the structure as drawn.

Experiments:
[1] = parameters: method as in doi:10.1021/acs.jced.8b00566; conditions: cited from earlier work
[2] = cited from earlier work; for FaSSIF solubility (converted): conversion of the µM value
[3] = parameters: method as in doi:10.1021/acs.jced.8b00566; conditions: cited from earlier work; remark: listed apart in the source
[4] = In vitro, non-sink, gastric transfer dissolution (0.01 N HCl then FaSSIF); assay type: physicochemical
Procedure: An in vitro, non-sink, gastric transfer dissolution method was developed to analyze the dissolution of abiraterone API, the generic abiraterone acetate tablets, the binary KSDs, to select ternary component for KSDs, as well as to analyze the dissolution of the ternary KSDs. For the dissolution analysis of abiraterone API and the binary and ternary KSDs, the samples (equivalent to 31 mg of abiraterone API) were loaded in an Erlenmeyer flask (dissolution vessel) containing 35 mL of 0.01N HCl (pH 2.0), placed in an incubator–shaker (Excella E24 (New Brunswick Scientific, Edison, NJ, USA)) set to 37 °C and a rotational speed of 180 rpm. After 30 min, 35 mL of FaSSIF (prepared in a 50 mM phosphate buffer at pH 6.8) was added to the dissolution vessel. At predetermined time points, samples were drawn from the dissolution vessel and centrifuged using an ultracentrifuge at 92,000 rpm for 90 s (Airfuge™, Beckman, Indianapolis, IN, USA). The supernatants were further diluted using the HPLC diluent and analyzed using the respective HPLC methods mentioned above. For the generic abiraterone acetate tablets, the whole tablet was analyzed, and the dissolution media volumes were scaled accordingly. For the selection of the ternary component, 35 mg of secondary polymer candidates were added in 35 mL of 0.01 N HCl (pH 2.0), and the dissolution of the binary KSD was conducted using the method described above. The area under the drug dissolution curve (AUDC) was calculated using the linear trapezoidal method.
For dissolution testing, we employed a two-stage, non-sink, gastric transfer dissolution method in which the sample is first exposed to acidic media, simulating fasted stomach content, followed by exposure to neutral-to-basic media, simulating fasted intestinal content.

Compound	water solubility [1]	FaSSIF solubility [2]	FaSSIF solubility (converted) [2]	BCS (Biopharmaceutical Classification System) class [3]	permeability [3]	Percent Rel. AUDC0.01 N HCl (Relative to Lot 5 KSD) ([4]; 0.01 N HCl stage, 35 mg secondary polymer added externally where stated)	Percent Rel. AUDCTotal (Relative to Lot 5 KSD) ([4]; 35 mg secondary polymer added externally to 35 mL 0.01 N HCl where stated)	Percent Rel. AUDCFaSSIF (Relative to Lot 5 KSD) ([4]; FaSSIF stage, 35 mg secondary polymer added externally where stated)	solubility ([4]; pH 6.8, FaSSIF stage of gastric transfer dissolution, read-out: average drug concentration (solubility) in FaSSIF media)
C[C@]12CC[C@H](O)CC1=CC[C@@H]1[C@@H]2CC[C@]2(C)C(c3cccnc3)=CC[C@@H]12 [Abiraterone API, Abiraterone]	3.05 µg/mL (≈ 8.73 µM)	12.7 ± 4.2 µM	~ 4.43 µg/mL	Class IV	low	1.8%	8.4%	46.2%	11.3 µg/mL (≈ 32.4 µM)
CC(=O)O[C@H]1CC[C@@]2(C)C(=CC[C@@H]3[C@@H]2CC[C@]2(C)C(c4cccnc4)=CC[C@@H]32)C1 [abiraterone acetate, Abiraterone acetate]	–	64.6 ± 5.2 µM	~ 25.29 µg/mL	–	–	–	–	–	–
